# Reference: patent publication US11324763B2, “Malaria transmission prevention agent having rare sugar as effective component thereof and malarial parasite growth regulating agent” (NATIONAL UNIVERSITY CORPORATION KAGAWA UNIVERSITY, priority 2014, dated 2022)
# Entries after “also recorded” stand apart in the source; their conditions may differ.
# Key:
# Type in all cases: in vivo
# [1] = tested on: Plasmodium berghei transmission from Anopheles stephensi mosquitoes to BALB/c mice; experiment: Infectivity to mice: malaria transmission by rare-sugar-fed mosquitoes sucking blood of BALB/c mice; conditions: for onset of malaria in mice: compared with 10 mM group and fructose single feeding group
# From the text: 20 days after sucking blood of an infected mouse, each group of mosquitoes which had been fed with a rare sugar (D-allose or D-psicose) and a control group of mosquitoes which had not been fed with a rare sugar were made to suck blood of mice, and the infectivity of malaria in mice was examined. As a result, in a group in which the mosquitoes fed with D-allose were made to suck blood, malaria infection was not observed in about 70% of mice, and the infection inhibitory effect of a rare sugar was confirmed.
# (§1) Each of the Anopheles stephensi mosquitoes in the three groups fed with the feed for 20 days in the above Example 1 was made to suck blood of the BALB/c mice (6 weeks of age, female). In each group, 50 mosquitoes were made to suck blood of 5 mice for 1 minute 5 times for each mouse. Every day from 2 days after sucking blood, a smear preparation was prepared from a small amount of blood collected from the tail of each mouse, followed by Giemsa staining, and thereafter, the presence or absence of parasites was examined with a microscope. In some mice, parasites were confirmed 3 days after sucking blood, and thereafter, the incidence rate increased, however, whether or not malaria was developed was determined based on the presence or absence of parasites at the time point of 14 days after sucking blood in the end.
# Each of the Anopheles stephensi mosquitoes in the four groups fed with the feed for 20 days in the above Example 3 was made to suck blood of the BALE/c mice (6 weeks of age, female). In each group, 50 mosquitoes were made to suck blood of 5 mice for 1 minute 5 times for each mouse. Every day from 2 days after sucking blood, a smear preparation was prepared from a small amount of blood collected from the tail of each mouse, followed by Giemsa staining, and thereafter, the presence or absence of parasites was examined with a microscope. Whether or not malaria was developed was determined at the time point of 14 days after sucking blood. […] Also in the 30 mM D-allose feeding group, the incidence rate was 100%, however, malaria was developed one day later as compared with the 10 mM D-ailose feeding group and the fructose single feeding group.
# as §1, with “Example 5” for “Example 1”, “the BALE/c” for “the BALB/c”
# [2] = tested on: Plasmodium berghei parasite in Anopheles stephensi mosquitoes; experiment: Malaria parasite growth in the body of vector mosquitoes fed with a rare sugar (ookinete, oocyst, sporozoite counts); conditions: Example 5, D-allose 100 mM + 440 mM D-fructose or Rare Sugar Sweet diluted 2.3 times
# [3] = tested on: Plasmodium berghei parasite in Anopheles stephensi mosquitoes; experiment: as above; conditions: for formation of ookinetes in the midgut of the mosquito: 100 mM rare sugar + 440 mM D-fructose fed, one day after sucking infected blood, vs control
# Protocol: In order to block malaria transmission, a vector mosquito is fed with a feed containing a rare sugar in advance, and then made to suck blood of a mouse infected with Plasmodium berghei parasite, whereby garaetocytes are ingested into the midgut of the vector mosquito. Thereafter, the feed containing a rare sugar is continuously given to the mosquito, and at the time point when one day has passed after the gametocytes are ingested into the body, the number of ookinetes in the midgut is evaluated, and then, the number of oocysts on the midgut after 10 days, the number of sporozoites in the midgut and the number of sporozoites in the salivary glands after 18 days are evaluated. In this manner, the malaria parasite growth inhibitory effect of the rare sugar was examined.
# First, three groups, each of which includes about 200 Anopheles stephensi mosquitoes, were prepared, and in a first group, a mixed aqueous solution of 100 mM D-allose and 440 mM D-fructose was fed, in a second group, a mixed aqueous solution of 100 mM B-psicose and 440 mM D-fructose was fed, and in a third group, an aqueous solution of 440 mM D-fructose was fed, which was used as a control. Each of these aqueous solutions was placed in an Erlenmeyer flask, and a lower end portion of a filter paper was dipped in the aqueous solution, and Anopheles stephensi mosquitoes were fed with the aqueous solution absorbed in the filter paper.
# Further, red blood cells infected with Plasmodium berghei parasite were intraperitoneally administered to BALB/c mice (6 weeks of age, female), whereby mice infected with malaria were prepared.
# Anopheles stephensi mosquitoes in each group were made to suck each aqueous solution for 3 days, and thereafter, made to suck blood of the mice infected with Plasmodium berghei malaria, whereby the malaria parasites were incorporated in the body of Anopheles stephensi mosquitoes. Subsequently, while continuously giving the fructose aqueous solution containing a rare sugar or the aqueous solution containing only fructose, the number of parasites in the body of the mosquitoes was evaluated at the below-mentioned timings. That is, 24 hours after sucking infected blood, the number of ookinetes in the midgut was counted, the number of oocysts on the midgut was counted after 10 days, and the number of sporozoites in the midgut and in the salivary glands were counted after 18 days, and the results of the three groups were compared.
# The D-allose concentration dependence for malaria parasite growth blocking effect of a rare sugar was examined. Four groups of Anopheles stephensi mosquitoes were prepared, and in a first group to a third group, mixed aqueous solutions of 10 mM, 30 mM, or 100 mM D-allose and 440 mM D-fructose were fed, respectively, and in a fourth group, an aqueous solution of 440 mM D-fructose was fed. In each of these aqueous solutions, a lower end portion of a filter paper was dipped, and Anopheles stephensi mosquitoes were fed with the aqueous solution absorbed in the filter paper.
# Anopheles stephensi mosquitoes in each group were made to suck each aqueous solution for 3 days, and thereafter, made to suck blood of the mice infected with Plasmodium berghei malaria, whereby the malaria parasites were incorporated in the body of Anopheles stephensi mosquitoes. Thereafter, while continuously giving the aqueous solution containing a rare sugar or the aqueous solution containing only fructose, the number of parasites in the body of the mosquitoes was counted at respective timings. That is, 24 hours after sucking infected blood, the number of ookinetes in the midgut, was counted, the number of oocysts on the midgut was counted after 10 days, and the number of sporozoites in the midgut and in the salivary glands were counted after 18 days, and the results of the four groups were compared. […]
# [4] = Example 2, mosquitoes fed 100 mM rare sugar + Fructose 440 mM for 20 days, determined 14 days after sucking blood
# [5] = Examples 1 and 2, 100 mM rare sugar + 440 mM D-fructose
# [6] = Example 1, 100 mM rare sugar + 440 mM D-fructose, 10 days after sucking blood
# [7] = Example 1, 100 mM rare sugar + 440 mM D-fructose, 18 days after sucking blood
smiles,measurement,setting,value
O=C[C@H](O)[C@H](O)[C@H](O)[C@H](O)CO [D-allose],Incidence rate after sucking blood (%) (mice which developed malaria/mice which had their blood sucked),[1]; [4],29%
same,Incidence rate after sucking blood (%) (mice which developed malaria/mice which had their blood sucked),"[1]; Example 2, mosquitoes fed 100 mM rare sugar + Fructose 440 mM for 20 days, determined 14 days after sucking blood, listed as Allose",29 (2/7) %
same,number of sporozoites inoculated into the mice when having their blood sucked,"[1]; Example 4, 30 mM D-allose feeding group, inferred from onset one day later",about one-tenth
same,malaria transmission / development of malaria in mice,"[1]; Example 4, 100 mM D-allose + D-fructose",did not develop malaria
same,incidence rate suppressed,"[1]; Example 4, 100 mM D-allose feeding group",100%
same,Incidence rate after sucking blood (%) (mice which developed malaria/mice which had their blood sucked),"[1]; Example 4, Allose 10 mM + Fructose 440 mM, 14 days after sucking blood",100%
same,Incidence rate after sucking blood (%) (mice which developed malaria/mice which had their blood sucked),"[1]; Example 4, Allose 10 mM + Fructose 440 mM, 14 days after sucking blood, listed as Allose",100 (5/5) %
same,Incidence rate after sucking blood (%) (mice which developed malaria/mice which had their blood sucked),"[1]; Example 4, Allose 30 mM + Fructose 440 mM, 14 days after sucking blood",100%
same,Incidence rate after sucking blood (%) (mice which developed malaria/mice which had their blood sucked),"[1]; Example 4, Allose 30 mM + Fructose 440 mM, 14 days after sucking blood, listed as Allose",100 (5/5) %
same,onset of malaria in mice,"[1]; Example 4, Allose 30 mM + Fructose 440 mM",one day later
same,onset of malaria in mice,"[1]; Example 4, Allose 30 mM + Fructose 440 mM, listed as Allose",The onset was delayed
same,Incidence rate after sucking blood (%) (mice which developed malaria/mice which had their blood sucked),"[1]; Example 4, Allose 100 mM + Fructose 440 mM, 14 days after sucking blood",0 (0/5) %
same,Incidence rate after sucking blood (%) (mice which developed malaria/mice which had their blood sucked),"[1]; Example 6, Allose 100 mM + Fructose 440 mM or Rare Sugar Sweet diluted 2.3 times, 14 days after sucking blood",0 (0/5) %
same,malaria transmission (transmission-blocking effect),"[1]; Example 6, D-allose 100 mM + D-fructose or Rare Sugar Sweet diluted 2.3 times",completely inhibited; also recorded: completely transmission-blocking effect
same,malaria transmission (transmission-blocking effect),[1]; [5],significantly suppressed; also recorded: completely blocks
same,mice in which malaria infection was not observed,"[1]; mosquitoes fed with rare sugar, 20 days after sucking blood of an infected mouse",about 70%
same,number of oocysts suppressed as compared with the control group,[2]; 10 days after sucking blood,100%
same,number of sporozoites in the midgut suppressed as compared with the control group,[2]; 18 days after sucking blood,100%
same,number of sporozoites in the salivary glands suppressed,[2]; 18 days after sucking blood,100%
same,formation of ookinetes in the midgut of the mosquito,[3]; Example 1,not suppressed; also recorded: slight
same,formation of oocysts on the midgut,[3]; [6],suppressed
same,number of oocysts suppressed as compared with the control group,[3]; [6],95%
same,formation of sporozoites in the midgut,[3]; [7],suppressed
same,formation of sporozoites in the salivary glands,[3]; [7],suppressed
same,number of sporozoites in the midgut suppressed as compared with the control group,[3]; [7],98.7%
same,number of sporozoites in the salivary gland suppressed as compared with the control group,[3]; [7],98.5%
same,number of sporozoites in the salivary glands,"[3]; Example 3, 30 mM D-allose feeding group, 18 days after sucking blood",significantly decreased
same,number of oocysts,"[3]; Example 3, D-allose 10 mM to 100 mM + 440 mM D-fructose, 10 days after sucking blood",suppressed in a D-allose concentration-dependent manner
same,growth into ookinetes in the midgut,"[3]; Example 3, D-allose 10 mM to 100 mM + 440 mM D-fructose, one day after sucking blood",suppressed in a concentration-dependent manner
same,growth of oocysts on the midgut,"[3]; Example 3, D-allose 100 mM + 440 mM D-fructose, 10 days after sucking blood",almost completely suppressed
same,formation of sporozoites (midgut and salivary glands),"[3]; Example 3, D-allose 100 mM + 440 mM D-fructose, 18 days after sucking blood",completely suppressed
same,suppression of the formation of ookinetes in the midgut,"[3]; Example 5, D-allose 100 mM + 440 mM D-fructose or Rare Sugar Sweet diluted 2.3 times, one day after sucking blood",slight
O=C(CO)[C@H](O)[C@H](O)[C@H](O)CO [D-psicose],Incidence rate after sucking blood (%) (mice which developed malaria/mice which had their blood sucked),[1]; [4],100%
same,Incidence rate after sucking blood (%) (mice which developed malaria/mice which had their blood sucked),"[1]; Example 2, mosquitoes fed 100 mM rare sugar + Fructose 440 mM for 20 days, determined 14 days after sucking blood, listed as Psicose",100 (6/6) %
same,malaria transmission (transmission-blocking effect),[1]; [5],not observed
same,formation of ookinetes in the midgut of the mosquito,[3]; Example 1,suppressed to some extent; also recorded: somewhat suppressed
same,formation of oocysts on the midgut,[3]; [6],slightly promoted
same,formation of sporozoites in the salivary glands,[3]; [7],slightly exceeding that in the control
same,number of sporozoites in the midgut suppressed as compared with the control group,[3]; [7],about 60%
